Assay results published in article PMC7031696 (Cell chemical biology, 2019).
Read-outs that look alike come from different tables or passages of the source.

Columns and labels:
[1] = tested on: Plasmodium falciparum 3D7-A10 parasites; test: Stage specificity assay (8-h exposure of synchronized stages, IC50^8h); format: cell-based; details: for IC50: Plasmodium falciparum
[2] = tested on: asynchronous 3D7-A10 parasite cultures; test: Standard 72-h exposure asexual blood stage susceptibility assay (IC50^72h); format: cell-based, Plasmodium falciparum; details: Plasmodium falciparum, 3D7, 72 h, read-out: Overall (72hr assay) Mean IC50 (IC50^72h)
[3] = tested on: 3D7-MR4 trophozoite parasite-infected RBCs; test: Metabolomic profiling (hydrophilic metabolite changes, UHPLC-MS); format: cell-based, Plasmodium falciparum

## O=C(Nc1ccsc1C(=O)NC1CCCCC1)c1ccc(F)cc1 [MMV665939]
[1]; 3D7-A10
  Ratio lowest IC50 8hr/IC50 72hr: 28.2
[1]; 3D7, read-out: Early rings Mean IC50 (IC50^8h), 8-h exposure 0–8 hr, 3D7-A10, survival at 60 h
  IC50: 17 µM
[1]; 3D7, read-out: Early trophozoites Mean IC50 (IC50^8h), 8-h exposure 16–24 hr, 3D7-A10, survival at 60 h
  IC50: 13.5 µM
[1]; 3D7, read-out: Late rings Mean IC50 (IC50^8h), 8-h exposure 8–16 hr, 3D7-A10, survival at 60 h
  IC50: 22.9 µM
[1]; 3D7, read-out: Late trophozoites Mean IC50 (IC50^8h), 8-h exposure 24–32 hr, 3D7-A10, survival at 60 h
  IC50: 39 µM
[1]; 3D7, read-out: Schizonts Mean IC50 (IC50^8h), 8-h exposure 32–40 hr, 3D7-A10, survival at 60 h
  IC50: 54.4 µM
[1]; most susceptible stages
  IC50^8h relative to IC50^72h value: > 28 fold
[2]
  IC50: 0.478 µM
[3]; metabolite 3-phosphoglycerate, log2 fold change
  Log2(fold changes) 3-phosphoglycerate: -0.3920
[3]; metabolite 4-Pyridoxic acid, log2 fold change
  Log2(fold changes) 4-Pyridoxic acid: -0.0874
[3]; metabolite 4-aminobutyrate, log2 fold change
  Log2(fold changes) 4-aminobutyrate: -0.3253
[3]; metabolite 4-phosphopantetheine, log2 fold change
  Log2(fold changes) 4-phosphopantetheine: 0.0000
[3]; metabolite 4-phosphopantothenate, log2 fold change
  Log2(fold changes) 4-phosphopantothenate: -0.8024
[3]; metabolite 5-aminopentanoic acid, log2 fold change
  Log2(fold changes) 5-aminopentanoic acid: 0.0000
[3]; metabolite 5-methyl-THF, log2 fold change
  Log2(fold changes) 5-methyl-THF: 0.0000
[3]; metabolite 5-phosphoribosyl-1-pyrophosphate, log2 fold change
  Log2(fold changes) 5-phosphoribosyl-1-pyrophosphate: 0.0000
[3]; metabolite 6-phospho-D-gluconate, log2 fold change
  Log2(fold changes) 6-phospho-D-gluconate: -0.2234
[3]; metabolite HVDD
  Log2(fold change) HVDD: -0.9968
[3]; metabolite Hydroxyisocaproic acid
  Log2(fold change) Hydroxyisocaproic acid: 0.0000
[3]; metabolite IDP
  Log2(fold change) IDP: 0.0000
[3]; metabolite IMP
  Log2(fold change) IMP: 0.0265
[3]; metabolite Inositol
  Log2(fold change) Inositol: 0.0000
[3]; metabolite Isopentyl-PP
  Log2(fold change) Isopentyl-PP: -0.3712
[3]; metabolite L-arginino-succinate
  Log2(fold change) L-arginino-succinate: -0.4465
[3]; metabolite LD
  Log2(fold change) LD: -0.2140
[3]; metabolite Myristoyl/tetradecanoyl-CoA
  Log2(fold change) Myristoyl/tetradecanoyl-CoA: 0.0000
[3]; metabolite N-Acetyl-L-alanine
  Log2(fold change) N-Acetyl-L-alanine: 1.1605
[3]; metabolite N-acetyl-L-ornithine
  Log2(fold change) N-acetyl-L-ornithine: -0.6303
[3]; metabolite N-acetyl-glucosamine-1/6-phosphate
  Log2(fold change) N-acetyl-glucosamine-1/6-phosphate: 0.0837
[3]; metabolite N-acetyl-glutamate
  Log2(fold change) N-acetyl-glutamate: -0.0309
[3]; metabolite N-acetyl-glutamine
  Log2(fold change) N-acetyl-glutamine: 0.1208
[3]; metabolite N-carbamoyl-L-aspartate
  Log2(fold change) N-carbamoyl-L-aspartate: 0.2551
[3]; metabolite NAD+
  Log2(fold change) NAD+: -0.2042
[3]; metabolite NADH
  Log2(fold change) NADH: 0.1443
[3]; metabolite NADP+
  Log2(fold change) NADP+: -0.0542
[3]; metabolite NADPH
  Log2(fold change) NADPH: 0.2171
[3]; metabolite O-acetyl-L-serine
  Log2(fold change) O-acetyl-L-serine: -0.2734
[3]; metabolite Octoluse 8/1P
  Log2(fold change) Octoluse 8/1P: -0.3337
[3]; metabolite Octoluse Bisphosphate
  Log2(fold change) Octoluse Bisphosphate: -0.2536
[3]; metabolite PD
  Log2(fold change) PD: -0.8727
[3]; metabolite PE
  Log2(fold change) PE: -0.7610
[3]; metabolite PEE
  Log2(fold change) PEE: -0.6388
[3]; metabolite PEEK
  Log2(fold change) PEEK: -0.8443
[3]; metabolite PVNF
  Log2(fold change) PVNF: -0.9198
[3]; metabolite Pyroglutamic acid
  Log2(fold change) Pyroglutamic acid: 0.4907
[3]; metabolite Pyrophosphate
  Log2(fold change) Pyrophosphate: 0.0000
[3]; metabolite Ribose-5-phosphate
  Log2(fold change) Ribose-5-phosphate: -0.6260
[3]; metabolite S-adenosyl-L-homocysteine
  Log2(fold change) S-adenosyl-L-homocysteine: 0.0358
[3]; metabolite S-adenosyl-L-methioninamine
  Log2(fold change) S-adenosyl-L-methioninamine: -2.1855
[3]; metabolite S-adenosyl-L-methionine
  Log2(fold change) S-adenosyl-L-methionine: 0.0000
[3]; metabolite S-methyl-5'-thioadenosine
  Log2(fold change) S-methyl-5'-thioadenosine: 0.4868
[3]; metabolite SD
  Log2(fold change) SD: -0.5679
[3]; metabolite SDL
  Log2(fold change) SDL: 0.0000
[3]; metabolite SID
  Log2(fold change) SID: -0.5481
[3]; metabolite Sedoheptulose bisphosphate
  Log2(fold change) Sedoheptulose bisphosphate: -0.1986
[3]; metabolite Thiamine pyrophosphate
  Log2(fold change) Thiamine pyrophosphate: -0.1355
[3]; metabolite UDP-D-glucose, log2 fold change
  Log2(fold changes) UDP-D-glucose: 0.0446
[3]; metabolite UDP-D-glucuronate, log2 fold change
  Log2(fold changes) UDP-D-glucuronate: -0.0014
[3]; metabolite UDP-N-acetyl-glucosamine, log2 fold change
  Log2(fold changes) UDP-N-acetyl-glucosamine: -0.0268
[3]; metabolite UDP, log2 fold change
  Log2(fold changes) UDP: -0.1898
[3]; metabolite UMP, log2 fold change
  Log2(fold changes) UMP: -0.0875
[3]; metabolite UTP, log2 fold change
  Log2(fold changes) UTP: 0.0000
[3]; metabolite hydroxyphenylpyruvate
  Log2(fold change) hydroxyphenylpyruvate: 0.0000
[3]; metabolite hydroxyproline/Aminolevulinate
  Log2(fold change) hydroxyproline/Aminolevulinate: -0.3323
[3]; metabolite hypoxanthine
  Log2(fold change) hypoxanthine: -0.1428
[3]; metabolite indole
  Log2(fold change) indole: 0.0000
[3]; metabolite inosine
  Log2(fold change) inosine: -0.4892
[3]; metabolite isoleucine
  Log2(fold change) isoleucine: 0.0000
[3]; metabolite lactate
  Log2(fold change) lactate: -0.3845
[3]; metabolite leucine
  Log2(fold change) leucine: 0.0000
[3]; metabolite lysine
  Log2(fold change) lysine: -0.8365
[3]; metabolite malate
  Log2(fold change) malate: -0.6264
[3]; metabolite maleic acid
  Log2(fold change) maleic acid: -0.6374
[3]; metabolite methionine
  Log2(fold change) methionine: -0.3116
[3]; metabolite myo-inositol
  Log2(fold change) myo-inositol: -0.4650
[3]; metabolite nicotinamide mononucleotide
  Log2(fold change) nicotinamide mononucleotide: -0.2358
[3]; metabolite nicotinate
  Log2(fold change) nicotinate: 0.0360
[3]; metabolite ornithine
  Log2(fold change) ornithine: -0.4311
[3]; metabolite orotate
  Log2(fold change) orotate: -0.0365
[3]; metabolite orotidine-5'-phosphate
  Log2(fold change) orotidine-5'-phosphate: -0.4342
[3]; metabolite oxaloacetate
  Log2(fold change) oxaloacetate: -0.0755
[3]; metabolite p-aminobenzoate
  Log2(fold change) p-aminobenzoate: 0.0000
[3]; metabolite p-hydroxybenzoate
  Log2(fold change) p-hydroxybenzoate: 0.0000
[3]; metabolite pantothenate
  Log2(fold change) pantothenate: -0.2337
[3]; metabolite phenylalanine
  Log2(fold change) phenylalanine: -0.4167
[3]; metabolite phenylpyruvate
  Log2(fold change) phenylpyruvate: 0.0000
[3]; metabolite phosphoenolpyruvate
  Log2(fold change) phosphoenolpyruvate: -0.3202
[3]; metabolite prephenate
  Log2(fold change) prephenate: -0.6614
[3]; metabolite proline
  Log2(fold change) proline: -0.2978
[3]; metabolite pyridoxine
  Log2(fold change) pyridoxine: -0.1996
[3]; metabolite pyruvate
  Log2(fold change) pyruvate: -0.7329
[3]; metabolite riboflavin
  Log2(fold change) riboflavin: 0.5336
[3]; metabolite ribose
  Log2(fold change) ribose: -0.3218
[3]; metabolite ribose-phosphate
  Log2(fold change) ribose-phosphate: -0.6165
[3]; metabolite ribulose-5-phosphate
  Log2(fold change) ribulose-5-phosphate: -0.5816
[3]; metabolite serine
  Log2(fold change) serine: -0.3504
[3]; metabolite sn-glycerol-3-phosphate
  Log2(fold change) sn-glycerol-3-phosphate: -0.3556
[3]; metabolite succinate/Methylmalonic acid
  Log2(fold change) succinate/Methylmalonic acid: -0.3870
[3]; metabolite succinyl-CoA/methylmalonyl-CoA
  Log2(fold change) succinyl-CoA/methylmalonyl-CoA: 0.0000
[3]; metabolite taurine
  Log2(fold change) taurine: -0.0411
[3]; metabolite thiamine
  Log2(fold change) thiamine: -0.2425
[3]; metabolite threonine/homoserine
  Log2(fold change) threonine/homoserine: -0.2222
[3]; metabolite thymidine
  Log2(fold change) thymidine: 0.0000
[3]; metabolite thymine, log2 fold change
  Log2(fold changes) thymine: 0.0000
[3]; metabolite trehalose-6-Phosphate, log2 fold change
  Log2(fold changes) trehalose-6-Phosphate: 0.0000
[3]; metabolite tryptophan, log2 fold change
  Log2(fold changes) tryptophan: -1.0924
[3]; metabolite tyrosine, log2 fold change
  Log2(fold changes) tyrosine: -0.3159
[3]; metabolite uridine, log2 fold change
  Log2(fold changes) uridine: 0.0000
